Here are results for six molecules from patent US8394779B2, “Methods of modulating angiogenesis via TRPV4” (Children's Medical Center Corporation, priority 2008, dated 2013).

The target in series [1] is T1, TRPV4 channels (Bos taurus, UniProt A0A8F4X677).
T1 construct: endogenous in cells; host or cells: bovine CE cells
As to the kind of experiment: Calcium imaging with TRPV channel activator. The settings on record: bovine CE cells, 2 μM. In kind it is cell-based. On the procedure:
(§1) CE cells cultured on fibronectin-coated 6 well UNIFLEX™ (FLEXCELL® International) plates for 24 hours were subjected to uniaxial cyclic stretch (10% elongation; 1 Hz frequency) for 1-2 h using a FLEXERCELL® TENSION PLUS™ System (FLEXCELL® International). In some experiments, CE cells were plated on fibronectin-coated 6 well BIOFLEX® (FLEXCELL® International) for lh and subjected to static stretch (15% elongation) for 1-15 min. Control cells were maintained under identical conditions in the absence of strain application. […] Images were acquired for every 4 seconds and analyzed using IP lab software and Microsoft Excel as described in Matthews, et. al. (2006) (J. Cell Sci., 119:508-518). Calcium imaging with TRPV channel activators was performed on cells cultured on MatTek glass bottomed dishes on LEICA® Confocal Microscope and analyzed using LEICA® software and MICROSOFT® EXCEL®. siRNA knock down of TRPV channels: smart pool siRNAs (10 nM) of TRPV2, TRPV4 (both from Dharmacon), TRPC1 (AMBION®) or control (QIAGEN®) siRNAs was transfected into CE cells using SILENTFECT™ reagent (BIORAD®) as described in Mammoto et. al. (2007) (J. Cell Sci., 120:456-467). […] The knock down of TRPV channel expression was assessed using RT-PCR with species-specific primers and Western blotting. […]

The target of series [2] is T2, TRPV4 channels (Homo sapiens, UniProt Q9HBA0).
T2 construct: host or cells: human dermal microvascular endothelial cells (HMVECs)
As to the kind of experiment: Calcium imaging with TRPV channel activator. Format: cell-based. The settings on record: human CE cells, 2 μM. On the procedure: as §1

A further series concerns TRPV4-EGFP. The series can be described thus: Whole-cell patch clamp of bovine CE cells transfected with TRPV4-EGFP. In kind it is cell-based. The note with it: 4 μM. The procedure: One day after bovine CE cells were transfected with TRPV4-EGFP, they were plated on gelatin-coated glass coverslips and allowed to grow for ˜24 h prior to recording. Cells were recorded in the whole-cell mode using borosilicate glass pipettes (1-3 MΩ) containing: (in mM) 120 CsMeSO3, 10 EGTA, 2 MgCl2, 10 HEPES; pH and osmolarity were adjusted with CsOH or HMeSO3, as needed, to 7.2 (23° C.) and ˜300 mOsm, respectively. Cells were bathed in a solution containing (in mM): 138 NaCl, 5 KCl, 1.8 CaCl2, 1 MgCl2, 10 HEPES; pH and osmolarity were adjusted with NaOH or HCl, as needed, to 7.4 (23° C.) and ˜310 mOsm, respectively. Cells were held at −40 mV for 3-5 min to allow for intracellular dialysis. Bath superfusion was stopped prior to initiating the recording of currents resulting from the indicated voltage protocol applied every 5 s. Immediately before use, a 4-α-PDD stock solution (2 mM in EtOH, on ice) was diluted 1:50 in bath solution under vortex and 50 μl was subsequently added to a still bath (0.5 ml) by pipette (final concentrations of 4 μM 4-α-PDD and 0.2% EtOH) and mixed by 3 gentle up/down pipette strokes. […]
Background: The patch-clamp technique gives a direct electrical read-out from membranes.

For series [3], the system named is VEGF. The note with it: cited from earlier work.
For series [4] the following is noted: mice; cited from earlier work.
The test system of a further series is bovine CE cells. As to the kind of experiment: Cyclic strain-induced CE cell reorientation (alignment). Format: cell-based. On the procedure:
as §1

Series [5] relates to cytosolic calcium in CE cells. As to the kind of experiment: Mechanical strain-induced calcium influx, FLUO-4 calcium imaging. In kind it is cell-based, bovine. The note with it: strain 15%, 3-4 sec, gadolinium chloride 25 μM, siRNA 10 nM. The procedure: as §1
Series [6] relates to β1 integrin. As to the kind of experiment: Strain-induced β1 integrin activation (GST-FNIII8-11 / 12G10 binding, T788/789 phosphorylation). In kind it is cell-based. The settings on record: bovine CE cells, GST-FNIII8-11 and 12G10 binding. On the procedure:
(§2) Western blotting were performed according to methods published in Mammoto et. al. (2007) (J. Cell Sci., 120:456-467). Membranes containing transferred protein were blocked in 3% BSA/TBST for 1 h and incubated overnight with primary antibodies against AKT and phospho Ser-473 AKT (1:1000), phospho-Thr 788/789 of […] integrin cytoplasmic tail (1:1000), ERK1/2 and phospho ERK1/2 (1:1000), FAK and phospho FAK-pY397 (1:1000), actin (1:1000) and TRPV4 (1:1000) at 4° C. The membranes were subsequently washed incubated with HRP-conjugated secondary antibodies (1:5000) for 1 h and washed and incubated with SUPERSIGNAL® West Pico ECL reagent from Pierce Biotechnology Inc. (USA) and exposed to Kodak X-ray film (SIGMA ALDRICH®).
(§3) β1 integrin activation was measured using a glutathione S-transferase (GST) fusion protein consisting of FN III repeat 8-11 domains or 12G10 antibodies (Orr, A. W. et. al., 2006, Mol. Biol. Cell 17:4686-4697). Briefly, cells subjected to mechanical stretch were incubated with either 5 μg/ml of GST-FN III8-11 protein or 12G10 antibodies in PBS containing Ca^2+ and Mg^2+ for 30 min at 37° C., washed and lysed in SDS-sample buffer. The samples were separated on SDS-PAGE and the bound reagents were assessed on Western blots using anti GST-antibodies and HRP-conjugated secondary antibodies.

The test system of series [7] is β1 integrin. The series can be described thus: Strain-induced β1 integrin activation (GST-FNIII8-11 binding, T788/789 phosphorylation). In kind it is cell-based. The note with it: human CE cells; 30 min pretreatment. On the procedure:
as §2, §3

The next series concerns PI3K. The series can be described thus: Strain-induced PI3K activity (GFP-AKT-PH translocation, AKT Ser-473 phosphorylation). In kind it is cell-based, bovine. The settings on record: mechanical strain 15%.
The subject of series [8] is cytosolic calcium in CE cells. The series can be described thus: Calcium influx on direct force application to cell surface integrins. The note with it: within 5 to 50 msec. Format: cell-based, bovine.
Series [9] relates to cytosolic calcium in CE cells. The settings on record: within 2-5 sec; cited from earlier work.
Series [10] has as its system VEGF. The settings on record: in vivo; cited from earlier work.

“Also recorded” adds a separate entry of the source. Where no end group is shown, it is not given here. [ ]: non-standard residue; d: D form.

T1 sequence (A0A8F4X677 1-871): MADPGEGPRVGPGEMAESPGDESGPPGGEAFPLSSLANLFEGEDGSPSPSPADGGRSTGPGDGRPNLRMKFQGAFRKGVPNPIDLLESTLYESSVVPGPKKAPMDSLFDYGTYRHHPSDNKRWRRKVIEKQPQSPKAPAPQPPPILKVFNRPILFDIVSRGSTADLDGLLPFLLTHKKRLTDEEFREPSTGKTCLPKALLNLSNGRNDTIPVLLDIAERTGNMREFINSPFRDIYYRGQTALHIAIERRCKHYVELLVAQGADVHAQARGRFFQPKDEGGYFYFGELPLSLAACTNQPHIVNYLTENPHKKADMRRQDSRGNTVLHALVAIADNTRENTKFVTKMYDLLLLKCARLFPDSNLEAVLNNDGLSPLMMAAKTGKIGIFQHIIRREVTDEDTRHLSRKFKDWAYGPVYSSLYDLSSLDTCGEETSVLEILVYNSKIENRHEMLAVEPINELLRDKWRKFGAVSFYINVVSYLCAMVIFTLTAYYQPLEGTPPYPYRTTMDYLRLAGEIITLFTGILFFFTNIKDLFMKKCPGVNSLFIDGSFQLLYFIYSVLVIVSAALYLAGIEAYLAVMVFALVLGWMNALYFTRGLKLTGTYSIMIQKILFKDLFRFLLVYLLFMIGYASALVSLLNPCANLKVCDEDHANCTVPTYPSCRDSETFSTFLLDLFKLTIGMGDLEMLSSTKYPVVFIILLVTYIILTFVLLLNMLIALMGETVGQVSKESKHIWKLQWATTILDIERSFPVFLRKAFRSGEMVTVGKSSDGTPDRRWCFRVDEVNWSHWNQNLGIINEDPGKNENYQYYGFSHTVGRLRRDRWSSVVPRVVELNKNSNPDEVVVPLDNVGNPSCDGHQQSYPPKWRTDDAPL
T2 sequence (Q9HBA0 whole entry): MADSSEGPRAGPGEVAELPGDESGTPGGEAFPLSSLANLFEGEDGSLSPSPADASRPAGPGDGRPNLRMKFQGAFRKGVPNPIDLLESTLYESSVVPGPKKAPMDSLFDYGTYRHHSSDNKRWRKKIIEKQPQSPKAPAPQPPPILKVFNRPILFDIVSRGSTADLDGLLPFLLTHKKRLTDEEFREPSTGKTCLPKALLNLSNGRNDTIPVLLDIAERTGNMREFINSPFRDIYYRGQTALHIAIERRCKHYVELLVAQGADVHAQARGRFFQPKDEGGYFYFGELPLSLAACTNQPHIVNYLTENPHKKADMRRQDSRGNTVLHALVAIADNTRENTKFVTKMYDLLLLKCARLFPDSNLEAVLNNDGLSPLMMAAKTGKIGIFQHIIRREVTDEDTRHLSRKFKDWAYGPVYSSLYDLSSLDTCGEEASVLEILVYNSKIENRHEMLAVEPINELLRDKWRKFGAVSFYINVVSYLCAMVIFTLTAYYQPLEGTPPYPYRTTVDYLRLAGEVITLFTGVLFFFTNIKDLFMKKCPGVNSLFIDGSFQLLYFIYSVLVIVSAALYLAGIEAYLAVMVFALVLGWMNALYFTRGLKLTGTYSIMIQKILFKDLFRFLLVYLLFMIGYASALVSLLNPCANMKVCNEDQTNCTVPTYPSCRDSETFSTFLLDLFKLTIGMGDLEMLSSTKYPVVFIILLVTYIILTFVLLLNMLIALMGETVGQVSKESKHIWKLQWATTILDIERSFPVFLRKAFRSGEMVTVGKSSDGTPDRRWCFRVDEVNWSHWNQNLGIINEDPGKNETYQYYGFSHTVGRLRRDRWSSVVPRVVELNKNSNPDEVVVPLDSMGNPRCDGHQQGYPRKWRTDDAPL
Protocol for PI3K: Cells adherent to flexible ECM substrates and subjected to mechanical stretch were washed in PBS, fixed in 4% paraformaldehyde for 30 min either mounted on glass slides (for visualizing GFP-AKT-PH translocation) or permeabilized with 0.25% TRITON®-X 100/PBS for 5 min for immuno staining. […] Images were acquired on a LEICA® Confocal SP2 microscope and processed using LEICA® software and Adobe Photoshop. GFP-AKT-PH domain translocation to the plasma membrane was quantified measuring either ratio of the perimeter of whole cell membrane and the membrane that contains the GFP-AKT-PH domain or the ratio of GFP fluorescence intensity of translocated GFP-AKT-PH domain and cytosol adjacent to the membrane. […] Statistical differences between experimental groups were determined using the student t-test.
Membranes containing transferred protein were blocked in 3% BSA/TBST for 1 h and incubated overnight with primary antibodies against AKT and phospho Ser-473 AKT (1:1000), phospho-Thr 788/789 of 131 integrin cytoplasmic tail (1:1000), ERK1/2 and phospho ERK1/2 (1:1000), FAK and phospho FAK-pY397 (1:1000), actin (1:1000) and TRPV4 (1:1000) at 4° C. […]

As to `CCCCCCCCCC(=O)O[C@@H]1[C@@H](C)[C@@]2(O)[C@@H](C=C(CO)C[C@@]3(O)C(=O)C(C)=C[C@@H]23)[C@@H]2C(C)(C)[C@]12OC(=O)CCCCCCCCC` [4-α-PDD, 4-α-phorbol 12, 13-didecanoate], the calcium signal result on TRPV4 channels [1] and on TRPV4 channels [2] was “robust calcium signal” each time. Besides, the “TRPV4 currents, whole-cell clamp” value in the series with TRPV4-EGFP was “robust TRPV4 currents”.
For the molecule `CN(C)c1ccc(/C=C2\C(=O)Nc3ccccc32)cc1` [SU 4312], the vessel formation result in the series with VEGF [3] is “blocked”.
On to `CO[C@@H]1[C@H](OC(=O)NC(=O)CCl)CC[C@]2(CO2)[C@H]1[C@@]1(C)O[C@@H]1CC=C(C)C` [TNP-470], for which, in series [4], the “diet-induced and genetic obesity” value is “prevent”; the “vascularity in the adipose tissue” value is “reduced”.
`[Cl][Gd]([Cl])[Cl]` [gadolinium chloride]: the “CE cell reorientation / re-alignment induced by mechanical strain” value with bovine CE cells was “greatly suppressed”. Also, in series [5], the “calcium influx / cytosolic calcium induced by mechanical strain” value is given as “almost completely abolished; also recorded: reduced influx”. The “β1 integrin activation in response to mechanical strain” value in the series with β1 integrin [6] and in the series with β1 integrin [7] was “significantly inhibited” throughout. Further, the “strain-induced translocation of AKT-PH-GFP to the membrane” value in the series on PI3K is “inhibited”. For the same molecule, in series [8], the “calcium influx on force application to integrins” value is listed as “inhibited”. The “calcium influx on direct force application to β1 integrins (magnetic tweezers)” value in series [9] was “blocked”.
For `N.N.N.N.N.N.N.N.N.N.N.N.N.N.[Cl-].[Cl-].[Cl-].[Cl-].[Cl-].[Cl-].[O-2].[O-2].[Ru+3].[Ru+3].[Ru+4]` [ruthenium red], in the series on bovine CE cells, the “CE cell reorientation / re-alignment induced by mechanical strain” value is reported as “significantly suppressed; also recorded: inhibits”. Moreover, the “calcium influx / cytosolic calcium induced by mechanical strain” value in [5] is given as “significantly suppressed; also recorded: reduced influx”. For the same molecule, in the series on CE cells, the “CE cell apoptosis (poly(ADPribosyl) polymerase cleavage)” value is on record as “did not effect” and the “CE cell proliferation (Ki 67 staining)” value is “did not effect”.
For the molecule “dRK6: Anti-VEGF hexapeptide RRKRRR (SEQ. ID. NO. 12) ([dR][dR][dK][dR][dR][dR])”, in the series on VEGF [10], the arthritis severity entry was “suppress and mitigate”.
